The record followed here is patent US8933224B2, “Triazine derivatives” (Pfizer Inc., priority 2013, dated 2015).

Assay [1] deals with human recombinant PDE10 enzyme (PDE10A) (Homo sapiens, UniProt Q9Y233). As to the kind of experiment: PDE10 scintillation proximity assay (SPA), inhibition of human recombinant PDE10 enzyme activity. In kind it is biochemical. To be noted: geometric mean of 2-4 determinations unless otherwise indicated (b: ≧5 determinations; c: single determination). The protocol: PDE10 activity was measured using a scintillation assay (SPA-based method) similar to that previously described by Seeger, T. F. et al., Brain Research 985 (2003) 113-126. The compounds' relative activity as PDE10 inhibitors was investigated by assaying a fixed amount of enzyme in the presence of the test compound and low substrate concentration (cAMP) such that an IC50 could be determined. […] The assay is performed in a 384-well format with 50 μL assay buffer (50 mM TRIS pH 7.5; 1.3 mM MgCl2; 0.01% Brij) containing enough PDE10 to convert ˜20% of 20 nM ^3H-cAMP, and a range of inhibitors. Reactions are incubated for 30 minutes at 25° C. The addition of 20 μL of 8 mg/ml yttrium silicate SPA beads (PerkinElmer) stops the reaction. The plates are sealed (TopSeal, PerkinElmer) and the beads are allowed to settle for 8 hrs, after which they are read on the Trilux Microbeta overnight. ^1Rat enzyme preparation:^2Human enzyme preparation:
Human PDE10A coding sequence (amino acids 21 to 797 from the sequence with accession number NP_001124162.1) was synthesized using codon optimization for insect expression and cloned into the baculovirus expression vector pFastBac (Invitrogen) engineered to include a N-terminal His6 affinity tag to aid in purification as described in Seeger, T. F. et al., Brain Research 985 (2003) 113-126. The recombinant Bacmid was isolated and used to transfect sf9 insect cells to generate a viral stock. To generate cell paste for purification, sf21 cells were infected with the virus stock and cells were harvested 72 hours after infection as described in Seeger, T. F. et al., Brain Research 985 (2003) 113-126. Insect cell paste was lysed and after centrifugation, the supernatant was chromatographed on Ni-NTA agarose (Qiagen) as described in Seeger, T. F. et al., Brain Research 985 (2003) 113-126. Ni-NTA agarose eluting fractions containing PDE10A were chromatographed on Superdex 200 (GE Healthcare Life Sciences) in 50 mM Tris HCl pH 7.5, 150 mM NaCl, 1 mM EDTA, 10% glycerol, 2 mM TCEP, 1.5 mM benzamidine, EDTA-free protease inhibitors (Roche), and 5 μM E-64.

The target in another assay is rat PDE10 enzyme (Rattus norvegicus (Rat), UniProt Q9QYJ6). In words: PDE10 scintillation proximity assay (SPA), inhibition of rat PDE10 enzyme activity. To be noted: geometric mean of 2-4 determinations unless otherwise indicated (b: ≧5 determinations; c: single determination). Type of assay: biochemical. The method, boiled down: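 SPA with fixed recombinant PDE10 (Sf21-expressed, Ni-NTA and Mono Q purified) converting ~20% of 20 nM ³H-cAMP in 50 mM TRIS pH 7.5, 1.3 mM MgCl2, 0.01% Brij, across an inhibitor range.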
rat PDE10 enzyme, sequence (Q9QYJ6 24-794): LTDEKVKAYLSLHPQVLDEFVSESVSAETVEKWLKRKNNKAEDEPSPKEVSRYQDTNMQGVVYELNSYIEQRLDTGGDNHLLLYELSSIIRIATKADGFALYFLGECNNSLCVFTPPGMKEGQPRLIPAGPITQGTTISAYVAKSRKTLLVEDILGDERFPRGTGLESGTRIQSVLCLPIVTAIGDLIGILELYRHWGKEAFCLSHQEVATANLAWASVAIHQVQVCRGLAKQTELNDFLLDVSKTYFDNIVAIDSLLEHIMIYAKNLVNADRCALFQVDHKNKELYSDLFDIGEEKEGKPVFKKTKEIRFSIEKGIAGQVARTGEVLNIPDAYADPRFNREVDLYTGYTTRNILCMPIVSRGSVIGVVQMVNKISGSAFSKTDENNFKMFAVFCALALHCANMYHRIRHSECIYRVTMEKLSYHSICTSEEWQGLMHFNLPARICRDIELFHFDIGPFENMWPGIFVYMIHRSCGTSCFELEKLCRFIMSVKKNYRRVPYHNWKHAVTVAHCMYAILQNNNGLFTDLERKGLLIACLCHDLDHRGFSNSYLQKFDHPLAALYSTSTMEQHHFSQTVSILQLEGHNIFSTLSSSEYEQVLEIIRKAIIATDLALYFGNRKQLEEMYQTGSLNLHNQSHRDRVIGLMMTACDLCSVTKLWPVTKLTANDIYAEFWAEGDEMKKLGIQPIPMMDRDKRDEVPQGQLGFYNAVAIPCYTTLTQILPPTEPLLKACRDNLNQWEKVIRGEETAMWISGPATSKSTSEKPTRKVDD
In general terms: SPA uses beads or plates that emit light when radiolabelled molecules are held near them.

For `COc1nccc2c1CN(c1ncnn3c(C)nc([C@@H]4CCOC4)c13)CC2` [Example 28, 8-methoxy-2-{7-methyl-5-[(3S)-tetrahydrofuran-3-yl]imidazo[5,1-f][1,2,4]triazin-4-yl}-1,2,3,4-tetrahydro-2,7-naphthyridine], the results for the IC50 (in assay [1]; against rat PDE10 enzyme) were 0.582 nM and 0.236 nM, respectively.
For `CCc1nn(C)c2c1CN(c1ncnn3c(C)nc([C@@H]4CCOC4)c13)CC2` [Example 18, 4-(3-ethyl-1-methyl-1,4,6,7-tetrahydro-5H-pyrazolo[4,3-c]pyridin-5-yl)-7-methyl-5-[(3S)-tetrahydrofuran-3-yl]imidazo[5,1-f][1,2,4]triazine] the same measures were 0.486 nM and 0.147 nM.
With `Cc1nc([C@@H]2CCOC2)c2c(N3CCc4c(c(C5CC5)nn4C)C3)ncnn12` [Example 12, 4-(3-Cyclopropyl-1-methyl-1,4,6,7-tetrahydro-5H-pyrazolo[4,3-c]pyridin-5-yl)-7-methyl-5-[(3S)-tetrahydrofuran-3-yl]imidazo[5,1-f][1,2,4]triazine], the IC50 in assay [1] came to 0.257 nM; on rat PDE10 enzyme it was 0.194 nM.
For `CCc1nc(C)nc2c1CN(c1ncnn3c(C)nc(-c4ccccc4F)c13)CC2` [Example 131, 4-ethyl-6-[5-(2-fluorophenyl)-7-methylimidazo[5,1-f][1,2,4]triazin-4-yl]-2-methyl-5,6,7,8-tetrahydropyrido[4,3-d]pyrimidine], the IC50 in assay [1] came to 0.573 nM; at rat PDE10 enzyme it was 0.456 nM.
Consider `Cc1nc2c(c(C(F)(F)F)n1)CN(c1ncnn3c(C)nc([C@@H]4CCOC4)c13)CC2` [Example 88, 2-methyl-6-{7-methyl-5-[(3S)-tetrahydrofuran-3-yl]imidazo[5,1-f][1,2,4]triazin-4-yl}-4-(trifluoromethyl)-5,6,7,8-tetrahydropyrido[4,3-d]pyrimidine], for which the IC50 was determined as 3.64 nM in assay [1] and 1.56 nM at rat PDE10 enzyme.
For the compound `COc1cnc2c(c1)CN(c1ncnn3c(C)nc([C@@H]4CCOC4)c13)CC2` [Example 29, 3-methoxy-6-{7-methyl-5-[(3S)-tetrahydrofuran-3-yl]imidazo[5,1-f][1,2,4]triazin-4-yl}-5,6,7,8-tetrahydro-1,6-naphthyridine], the IC50 in assay [1] was 0.384 nM; at rat PDE10 enzyme it was 0.307 nM.
Regarding `Cc1nc(-c2ccccc2F)c2c(N3CCc4cc(C5CC5)ncc4C3)ncnn12` [Example 162, 6-cyclopropyl-2-[5-(2-fluorophenyl)-7-methylimidazo[5,1-f][1,2,4]triazin-4-yl]-1,2,3,4-tetrahydro-2,7-naphthyridine], the IC50 in assay [1] amounted to 5.21 nM; against rat PDE10 enzyme, 2.16 nM.
For `Cc1nc([C@@H]2CCOC2)c2c(N3CCc4ccc(C5CC5)nc4C3)ncnn12` [Example 74, 2-cyclopropyl-7-{7-methyl-5-[(3S)-tetrahydrofuran-3-yl]imidazo[5,1-f][1,2,4]triazin-4-yl}-5,6,7,8-tetrahydro-1,7-naphthyridine] the same measures were 0.211 nM and 0.0896 nM.
`CCc1c2c(nn1C)CCN(c1ncnn3c(C)nc([C@@H]4CCOC4)c13)C2` [Example 57, 4-(3-ethyl-2-methyl-2,4,6,7-tetrahydro-5H-pyrazolo[4,3-c]pyridin-5-yl)-7-methyl-5-[(3S)-tetrahydrofuran-3-yl]imidazo[5,1-f][1,2,4]triazine]: the IC50 in assay [1] worked out at 13.8 nM; at rat PDE10 enzyme it was 0.364 nM.
For `Cc1nc([C@@H]2CCOC2)c2c(N3CCc4cnn(CC(F)(F)F)c4C3)ncnn12` [Example 170, 7-methyl-5-[(3S)-tetrahydrofuran-3-yl]-4-[1-(2,2,2-trifluoroethyl)-1,4,5,7-tetrahydro-6H-pyrazolo[3,4-c]pyridin-6-yl]imidazo[5,1-f][1,2,4]triazine] the same measures were 2.55 nM and 1.94 nM.
For `Cc1nc(-c2ccccc2F)c2c(N3CCc4cnn(C(C)C)c4C3)ncnn12` [Example 92, 5-(2-fluorophenyl)-7-methyl-4-[1-(propan-2-yl)-1,4,5,7-tetrahydro-6H-pyrazolo[3,4-c]pyridin-6-yl]imidazo[5,1-f][1,2,4]triazine] the same measures were 0.664 nM and 0.997 nM.
For `Cc1nc(-c2ccccc2F)c2c(N3CCc4nc(C5CC5)ncc4C3)ncnn12` [Example 1, 2-Cyclopropyl-6-[5-(2-fluorophenyl)-7-methylimidazo[5,1-f][1,2,4]triazin-4-yl]-5,6,7,8-tetrahydropyrido[4,3-d]pyrimidine] the same measures were 5.93 nM and 4.23 nM.
`Cc1nc([C@@H]2CCOC2)c2c(N3CCc4nc(C5CC5)n(C)c(=O)c4C3)ncnn12` [Example 143, 2-cyclopropyl-3-methyl-6-{7-methyl-5-[(3S)-tetrahydrofuran-3-yl]imidazo[5,1-f][1,2,4]triazin-4-yl}-5,6,7,8-tetrahydropyrido[4,3-d]pyrimidin-4(3H)-one]: the IC50 turned out to be 0.219 nM in assay [1] and 0.106 nM against rat PDE10 enzyme.
In the same order, the values of `Cc1cc2c(cn1)CN(c1ncnn3c(C)nc([C@@H]4CCOC4)c13)CC2` [Example 163, 6-methyl-2-{7-methyl-5-[(3S)-tetrahydrofuran-3-yl]imidazo[5,1-f][1,2,4]triazin-4-yl}-1,2,3,4-tetrahydro-2,7-naphthyridine] are 1.78 nM and 1.19 nM.
Regarding `Cc1nc2c(s1)CN(c1ncnn3c(C)nc([C@H]4CCOC4)c13)CC2` [Example 23, 7-methyl-4-(2-methyl-6,7-dihydro[1,3]thiazolo[5,4-c]pyridin-5(4H)-yl)-5-[(3R)-tetrahydrofuran-3-yl]imidazo[5,1-f][1,2,4]triazine], the IC50 is 2.53 nM in assay [1] and less than 5.55 nM against rat PDE10 enzyme.
In the same order, the values of `Cc1nc(-c2ccccc2F)c2c(N3Cc4c(cnn4C)C(C)C3)ncnn12` (stereo not shown) [Example 168] are 3.96 nM and 6.1 nM.
In the same order, the values of `Cc1nc([C@H]2CCOC2)c2c(N3CCc4ncccc4C3)ncnn12` [Example 96, 6-{7-methyl-5-[(3R)-tetrahydrofuran-3-yl]imidazo[5,1-f][1,2,4]triazin-4-yl}-5,6,7,8-tetrahydro-1,6-naphthyridine] are 4.8 nM and 5.2 nM.
With `Cc1nc(-c2ccccc2F)c2c(N3CCc4cnn(CC5CCC5)c4C3)ncnn12` [Example 175, 4-[1-(cyclobutylmethyl)-1,4,5,7-tetrahydro-6H-pyrazolo[3,4-c]pyridin-6-yl]-5-(2-fluorophenyl)-7-methylimidazo[5,1-f][1,2,4]triazine], the IC50 came to 1.94 nM in assay [1] and 0.878 nM against rat PDE10 enzyme.
Turning to `Cc1cc2c(cn1)CN(c1ncnn3c(C)nc(-c4ccccc4F)c13)CC2` [Example 164, 2-[5-(2-fluorophenyl)-7-methylimidazo[5,1-f][1,2,4]triazin-4-yl]-6-methyl-1,2,3,4-tetrahydro-2,7-naphthyridine], the IC50 in assay [1] was 5.92 nM; against rat PDE10 enzyme, 3.32 nM.
For the compound `Cc1nc([C@@H]2CCOC2)c2c(N3CCc4nn(C5CC5)cc4C3)ncnn12` [Example 11, 4-(2-Cyclopropyl-2,4,6,7-tetrahydro-5H-pyrazolo[4,3-c]pyridin-5-yl)-7-methyl-5-[(3S)-tetrahydrofuran-3-yl]imidazo[5,1-f][1,2,4]triazine], the IC50 in assay [1] turned out to be 0.265 nM; against rat PDE10 enzyme, 0.174 nM.
For `Cc1nc([C@@H]2CCOC2)c2c(N3CCc4nc(C5CC5)oc4C3)ncnn12` [Example 9, 4-(2-Cyclopropyl-6,7-dihydro[1,3]oxazolo[5,4-c]pyridin-5(4H)-yl)-7-methyl-5-[(3S)-tetrahydrofuran-3-yl]imidazo[5,1-f][1,2,4]triazine] the same measures were 1.14 nM and 0.892 nM.
Take `Cc1nc(C)c2c(n1)CCN(c1ncnn3c(C)nc([C@@H]4CCOC4)c13)C2` [Example 38, 2,4-dimethyl-6-{7-methyl-5-[(3S)-tetrahydrofuran-3-yl]imidazo[5,1-f][1,2,4]triazin-4-yl}-5,6,7,8-tetrahydropyrido[4,3-d]pyrimidine]: the IC50 stood at 2.92 nM in assay [1] and 1.78 nM against rat PDE10 enzyme.
In the case of `CCc1nc(C2CC2)nc2c1CN(c1ncnn3c(C)nc([C@@H]4CCOC4)c13)CC2` [Example 137], the IC50 worked out at 0.0777 nM in assay [1] and 0.095 nM at rat PDE10 enzyme.

As usually defined, the IC50 is the concentration needed to halve the response being measured.
